Assay results from patent US12109176B1, “Effect of glycerol on biofilm forming bacteria and fungi that changes the microbes sensitivity to pro and anti-biofilm non-toxic, non-bonded plasma amino acids and amino acid derivatives” (priority 2023, dated 2024).
Values belong to the molecule of their own block, whether it stands above or below them.

How the values were obtained:
[1] = tested on: bacterial and fungal biofilm; assay: In vitro testing on bacterial and fungal biofilm (assay not told apart); assay type: cell-based; details: for effect on bacterial and fungal biofilm (in words): in vitro testing
Procedure: (§1) Two types of biofilm assays were performed: an inhibition assay and a disruption assay. The inhibition assay assesses the compound's ability to prevent biofilm development, while the disruption assay assesses the compound's ability to break up an existing mature biofilm.
(§2) All bacterial biofilm solutions were prepared in Tryptic Soy Broth (TSB), supplemented with 1% glucose (henceforth referred to as TSB-G). All subsequent procedures were performed in a manner that maintained sterility. A solution of each amino acid or an amino acid derivative to be tested was prepared in weight to volume concentrations ranging from 0.1-5.0%. Amino acids and amino acid derivatives were also tested in combinations. Compound solutions were homogenized with gentle agitation in the dark (4° C., 24 hours) before use.
(§3) 32 Amino acids and 2 amino acid derivatives of the amino acid serine that occur freely in human blood were tested. […] 31 of the 32 amino acids that were tested were the L-Isomers. Glycine has no stereoisomers. The 2 amino acid derivatives, ethanolamine and phosphoethanolamine were also tested. All biofilm assays were performed using 384-well non-tissue culture-treated polystyrene plates. The fungal species tested are as follows: Candida albicans, Candida guilliermondii, Candida parapsilosis, Candida glabrata, Candida tropicalis and Candida dubliniensis. The bacterial species tested are as follows: Staphylococci (standard wild type and methicillin-resistant strain USA300), Escherichia coli, Pseudomonas aeruginosa and Staphylococcus epidermidis.
(§4) Fungal strains were streaked on Yeast Peptone Dextrose (YPD) agar plates and incubated at 30° C. for 48 hours. A single colony from each strain to be tested was inoculated into YPD broth and grown for 12 hours at 30° C., shaking at 225 rpm. […] The cells were allowed to adhere to the plate for 90 minutes at 37° C. with shaking (350 rpm). […] The plate was further incubated for 24 hours at 37° C. with shaking (350 rpm). Media was carefully aspirated and the biofilm was measured by optical density at 600 nm. […] The cells were allowed to adhere to the plate for 90 minutes at 37° C. with shaking (350 rpm). […] The plate was further incubated for 24 hours at 37° C. with shaking (350 rpm). […] The plate was further incubated for 24 hours at 37° C. with shaking (350 rpm). Media was carefully aspirated, and the biofilm was measured by optical density at 600 nm.
(§5) Bacterial strains were streaked on Blood Agar plates (5% sheep blood in Tryptic Soy Broth) and incubated at 37° C. for 24 hours. A single colony from each strain to be tested was inoculated in a TSB broth and grown for 12 hours, at 37° C. with shaking (225 rpm). For the bacterial biofilm inhibition assays, 1 μL of saturated overnight cell culture was added to either 80 μL of TSB-G, or TSB-G supplemented with the amino acid compound solution to be tested, in a 384-well plate. The cells were allowed to adhere to the plate for 60 minutes at 37° C. without shaking. The media was carefully aspirated and 80 μL of TSB-G, or TSB-G supplemented with the amino acid compound solution was added to the plate. The plate was further incubated for 24 hours at 37° C. without shaking. Media was carefully aspirated and the biofilm was measured by optical density at 600 nm. Eight or twelve replicates were performed for each tested condition and the reported values are normalized to the control (TSB-G media only). For the bacterial biofilm disruption assays, 80 µL of TSB-G was added to the plate, along with 1 μL of overnight cell culture. The cells were allowed to adhere to the plate for 60 minutes at 37° C. with no shaking. The media was carefully aspirated and 80 μL of TSB-G was added to the plate. The plate was further incubated for 24 hours at 37° C. with no shaking. Media was carefully aspirated from the mature biofilm and 80 μL of TSB-G, or TSB-G supplemented with the amino acid to be tested, was gently added to the plate.

[2] = in vivo
[3] = tested on: fungal biofilm (C. albicans); assay: Fungal biofilm inhibition assay; assay type: cell-based, Candida albicans
Procedure: as §1, §2, §3, §4

[4] = tested on: bacterial (S. aureus) biofilm and fungal biofilm (C. albicans); assay: Biofilm inhibition assay, bacterial and fungal taken together; assay type: cell-based; details: for Neutral (square: Inhibition Biofilm Assay): symbol marks the assay
[5] = tested on: bacterial (S. aureus) biofilm; assay: Bacterial biofilm inhibition assay; assay type: cell-based, Staphylococcus aureus
[6] = tested on: fungal biofilm (C. albicans); assay: Fungal biofilm disruption assay; assay type: cell-based, Candida albicans
bacterial biofilm = assay: In vitro testing on bacterial biofilm (inhibition and/or disruption); assay type: cell-based; details: in vitro testing
[7] = tested on: bacterial (S. aureus) biofilm; assay: Bacterial biofilm disruption assay; assay type: cell-based, Staphylococcus aureus
[8] = tested on: bacterial (S. aureus) biofilm and fungal biofilm (C. albicans); assay: Biofilm disruption assay, bacterial and fungal taken together; assay type: cell-based
Procedure: as §1, §2, §3, §4, §5

fungal biofilm = assay: In vitro testing on fungal biofilm (inhibition and/or disruption); assay type: cell-based; details: in vitro testing
[9] = Thermal degradation in hot aqueous solution; assay type: physicochemical; details: water at about 90 C. to 100 C.
[10] = Table F, in the presence of a sufficient concentration of glycerol
[11] = Table D, bacterial and fungal biofilm

SMILES: OCC(O)CO [glycerol]
effect on bacterial and fungal biofilm (in words) [1]: not found to have antibiofilm effect | toxicity of the glycerol infusion [2]: non-toxic to humans

SMILES: N[C@@H](CCC(=O)O)C(=O)O [Glutamic Acid, L-glutamic acid]
Reduce or Inhibit F Biofilm (squares: Inhibition Biofilm Assay) ([3]; Table D, 0.1 to 5.0%): ▪▪ (Two squares [ie. ▪▪] signifies a major effect (greater than about 50%), on the Inhibition Biofilm Assay) | Reduce or Inhibit F Biofilm (squares: Inhibition Biofilm Assay) [3, 10]: ▪▪ (Two squares [ie. ▪▪] signifies a major effect (greater than about 50%), on the Inhibition Biofilm Assay) | Reduce Both (squares: Inhibition Biofilm Assay) [4, 11]: ▪▪ (Two squares [ie. ▪▪] signifies a major effect (greater than about 50%), on the Inhibition Biofilm Assay) | Reduce Both (squares: Inhibition Biofilm Assay) [4, 10]: ▪▪ (Two squares [ie. ▪▪] signifies a major effect (greater than about 50%), on the Inhibition Biofilm Assay) | Reduce or Inhibit B Biofilm (squares: Inhibition Biofilm Assay) ([5]; Table D, 0.1 to 5.0%): ▪▪ (Two squares [ie. ▪▪] signifies a major effect (greater than about 50%), on the Inhibition Biofilm Assay) | Reduce or Inhibit B Biofilm (squares: Inhibition Biofilm Assay) [5, 10]: ▪▪ (Two squares [ie. ▪▪] signifies a major effect (greater than about 50%), on the Inhibition Biofilm Assay) | Reduce or Inhibit F Biofilm (dots: Disruption Biofilm Assay) ([6]; Table D, 0.1 to 5.0%): ●● (Two dots [ie. ●●] signifies a major effect (greater than about 50%), on the Disruption Biofilm Assay) | Reduce or Inhibit F Biofilm (dots: Disruption Biofilm Assay) [6, 10]: ●● (Two dots [ie. ●●] signifies a major effect (greater than about 50%), on the Disruption Biofilm Assay) | ideal concentration for antibiofilm effect ([1]; in the absence of glycerol on in vitro testing): 0.5 g % | effect on bacterial and fungal biofilm (in words) [1]: very active against both bacterial and fungal biofilm | effect on bacterial and fungal biofilm (in words) ([1]; listed as Glutamic acid): strong effect on biofilm-forming bacteria and fungi in reducing biofilm formation | concentration of maximum (ideal) antibiofilm effect ([1]; tested on its own, without glycerol): 0.5% | effect on bacterial biofilm (in words) (bacterial biofilm): antibacterial biofilm effect | Reduce or Inhibit B Biofilm (dots: Disruption Biofilm Assay) ([7]; Table D, 0.1 to 5.0%): ●● (Two dots [ie. ●●] signifies a major effect (greater than about 50%), on the Disruption Biofilm Assay) | Reduce or Inhibit B Biofilm (dots: Disruption Biofilm Assay) [7, 10]: ●● (Two dots [ie. ●●] signifies a major effect (greater than about 50%), on the Disruption Biofilm Assay) | Reduce Both (dots: Disruption Biofilm Assay) [8, 11]: ●● (Two dots [ie. ●●] signifies a major effect (greater than about 50%), on the Disruption Biofilm Assay) | Reduce Both (dots: Disruption Biofilm Assay) [8, 10]: ●● (Two dots [ie. ●●] signifies a major effect (greater than about 50%), on the Disruption Biofilm Assay) | effect on fungal biofilm (in words) (fungal biofilm): antifungal biofilm effects

thermal stability in aqueous solution [9]: too susceptible to thermal degradation
SMILES: NC(=O)CC[C@H](N)C(=O)O [Glutamine, L-glutamine]
Neutral (square: Inhibition Biofilm Assay) ([4]; Table D, Neutral = no effect on the biofilm): ▪ (Single square [ie. ▪] signifies little effect on the Inhibition Biofilm Assay (from about 10 to less than 30%)) | Neutral (square: Inhibition Biofilm Assay) ([4]; Table E, in the absence of an infusion of glycerol): ▪ (Single square [ie. ▪] signifies little effect on the Inhibition Biofilm Assay (from about 10 to less than 30%)) | Neutral (square: Inhibition Biofilm Assay) [4, 10]: ▪ (Single square [ie. ▪] signifies little effect on the Inhibition Biofilm Assay (from about 10 to less than 30%))
